Results published in patent US10202361B2, “Pyridazinones as herbicides” (E I DU PONT DE NEMOURS AND COMPANY, priority 2014, dated 2019).

Experiments:
Assay in all cases: Test E pre-/postemergence greenhouse herbicide test
Format in all cases: in vivo
Settings in all cases: Preemergence, scale 0 to 100
[1] = tested on: arrowleaf sida (Sida rhombifolia)
Text: (§1) Seeds of plant species selected from corn (Zea mays), soybean (Glycine max), lambsquarters (Chenopodium album), poinsettia, wild (wild poinsettia, Euphorbia heterophylla), pigweed, palmer (palmer pigweed, Amaranthus palmeri), waterhemp (common waterhemp, Amaranthus rudis), surinam grass (Brachiaria decumbens), crabgrass, large (large crabgrass Digitaria sanguinalis), crabgrass, Brazil (Brazilian crabgrass, Digitaria horizontalis), panicum, fall (fall panicum, Panicum dichotomiflorum), foxtail, giant (giant foxtail, Setaria faberii), foxtail, green (green foxtail, Setaria viridis), goosegrass (Eleusine indica), johnsongrass (Sorghum halepense), ragweed (common ragweed, Ambrosia elatior), barnyardgrass (Echinochloa crus-galli), sandbur (southern sandbur, Cenchrus echinatus), arrowleaf sida (Sida rhombifolia), ryegrass, Italian (Italian ryegrass, Lolium multiflorum), dayflower, VA (Virginia dayflower, Commelina virginica), field bindweed (Convolvulus arvensis), cocklebur (common cocklebur, Xanthium strumarium), morningglory (Ipomoea coccinea), nightshade (eastern black nightshade, Solanum ptycanthum), kochia (Kochia scoparia), nutsedge, yellow (yellow nutsedge, Cyperus esculentus), smartweed (ladysthumb smartweed, Polygonum persicaria), velvetleaf (Abutilon theophrasti), and beggarticks (hairy beggarticks, Bidens pilosa), were planted into a silt loam soil and treated preemergence with test chemicals formulated in a non-phytotoxic solvent mixture which included a surfactant.
(§2) At the same time, plants from these crop and weed species and also waterhemp_RES1, (ALS & Triazine resistant common waterhemp, Amaranthus rudis), and waterhemp_RES2, (ALS & HPPD resistant common waterhemp, Amaranthus rudis) were planted in pots containing Redi-Earth® planting medium (Scotts Company, 14111 Scottslawn Road, Marysville, Ohio 43041) comprising spaghnum peat moss, vermiculite, wetting agent and starter nutrients were treated with postemergence applications of test chemicals formulated in the same manner. Plants ranged in height from 2 to 18 cm for postemergence treatments (1- to 4-leaf stage). Treated plants and controls were maintained in a greenhouse for 14 to 21 d, after which time all species were compared to controls and visually evaluated. Plant response ratings, summarized in Table E, are based on a scale of 0 to 100 where 0 is no effect and 100 is complete control. A dash (-) response means no test result.

[2] = tested on: panicum, fall (fall panicum, Panicum dichotomiflorum)
Text: as §1, §2

[3] = tested on: beggarticks (hairy beggarticks, Bidens pilosa)
Text: as §1, §2

[4] = tested on: ryegrass, Italian (Italian ryegrass, Lolium multiflorum)
Text: as §1, §2

[5] = tested on: pigweed, palmer (palmer pigweed, Amaranthus palmeri)
Text: as §1, §2

[6] = tested on: nightshade (eastern black nightshade, Solanum ptycanthum)
Text: as §1, §2

[7] = tested on: morningglory (Ipomoea coccinea)
Text: as §1, §2

[8] = tested on: field bindweed (Convolvulus arvensis)
Text: as §1, §2

[9] = tested on: velvetleaf (Abutilon theophrasti)
Text: as §1, §2

[10] = tested on: barnyardgrass (Echinochloa crus-galli)
Text: as §1, §2

[11] = tested on: waterhemp (common waterhemp, Amaranthus rudis)
Text: as §1, §2

kochia (Kochia scoparia) = tested on: kochia (Kochia scoparia)
Text: as §1, §2

[12] = tested on: ragweed (common ragweed, Ambrosia elatior)
Text: as §1, §2

[13] = tested on: sandbur (southern sandbur, Cenchrus echinatus)
Text: as §1, §2

[14] = tested on: foxtail, giant (giant foxtail, Setaria faberii)
Text: as §1, §2

## CCOc1cc(=O)n(-c2ccc(F)cc2)nc1Cc1ccnc(C(F)(F)F)c1 [Compound 25, 5-ethoxy-2-(4-fluorophenyl)-6-[[2-(trifluoromethyl)-4-pyridinyl]methyl]-3 (2H)-pyridazinone]
[1]; 8 g ai/ha
  Plant response rating: Arrowleaf Sida: 0
[1]; 16 g ai/ha
  Plant response rating: Arrowleaf Sida: 5
[1]; 31 g ai/ha
  Plant response rating: Arrowleaf Sida: 5
[1]; 62 g ai/ha
  Plant response rating: Arrowleaf Sida: 35
[1]; 125 g ai/ha
  Plant response rating: Arrowleaf Sida: 40
[2]; 8 g ai/ha
  Plant response rating: Panicum, Fall: 0
[2]; 16 g ai/ha
  Plant response rating: Panicum, Fall: 35
[2]; 31 g ai/ha
  Plant response rating: Panicum, Fall: 50
[2]; 62 g ai/ha
  Plant response rating: Panicum, Fall: 100
[2]; 125 g ai/ha
  Plant response rating: Panicum, Fall: 100
[3]; 8 g ai/ha
  Plant response rating: Beggarticks: 0
[3]; 16 g ai/ha
  Plant response rating: Beggarticks: 0
[3]; 31 g ai/ha
  Plant response rating: Beggarticks: 0
[3]; 62 g ai/ha
  Plant response rating: Beggarticks: 0
[3]; 125 g ai/ha
  Plant response rating: Beggarticks: 15
[4]; 8 g ai/ha
  Plant response rating: Ryegrass, Italian: 0
[4]; 16 g ai/ha
  Plant response rating: Ryegrass, Italian: 30
[4]; 31 g ai/ha
  Plant response rating: Ryegrass, Italian: 30
[4]; 62 g ai/ha
  Plant response rating: Ryegrass, Italian: 40
[4]; 125 g ai/ha
  Plant response rating: Ryegrass, Italian: 50
[5]; 8 g ai/ha
  Plant response rating: Pigweed, Palmer: 0
[5]; 16 g ai/ha
  Plant response rating: Pigweed, Palmer: 95
[5]; 31 g ai/ha
  Plant response rating: Pigweed, Palmer: 95
[5]; 62 g ai/ha
  Plant response rating: Pigweed, Palmer: 100
[5]; 125 g ai/ha
  Plant response rating: Pigweed, Palmer: 100
[6]; 8 g ai/ha
  Plant response rating: Nightshade: 5
[6]; 16 g ai/ha
  Plant response rating: Nightshade: 50
[6]; 31 g ai/ha
  Plant response rating: Nightshade: 80
[6]; 62 g ai/ha
  Plant response rating: Nightshade: 98
[6]; 125 g ai/ha
  Plant response rating: Nightshade: 100
[7]; 8 g ai/ha
  Plant response rating: Morningglory: 0
[7]; 16 g ai/ha
  Plant response rating: Morningglory: 0
[7]; 31 g ai/ha
  Plant response rating: Morningglory: 5
[7]; 62 g ai/ha
  Plant response rating: Morningglory: 50
[7]; 125 g ai/ha
  Plant response rating: Morningglory: 65
[8]; 8 g ai/ha
  Plant response rating: Field Bindweed: 0
[8]; 16 g ai/ha
  Plant response rating: Field Bindweed: 0
[8]; 31 g ai/ha
  Plant response rating: Field Bindweed: 0
[8]; 62 g ai/ha
  Plant response rating: Field Bindweed: 5
[8]; 125 g ai/ha
  Plant response rating: Field Bindweed: 100
[9]; 8 g ai/ha
  Plant response rating: Velvetleaf: 0
[9]; 16 g ai/ha
  Plant response rating: Velvetleaf: 20
[9]; 31 g ai/ha
  Plant response rating: Velvetleaf: 0
[9]; 62 g ai/ha
  Plant response rating: Velvetleaf: 30
[9]; 125 g ai/ha
  Plant response rating: Velvetleaf: 80
[10]; 8 g ai/ha
  Plant response rating: Barnyardgrass: 0
[10]; 16 g ai/ha
  Plant response rating: Barnyardgrass: 5
[10]; 31 g ai/ha
  Plant response rating: Barnyardgrass: 15
[10]; 62 g ai/ha
  Plant response rating: Barnyardgrass: 35
[10]; 125 g ai/ha
  Plant response rating: Barnyardgrass: 60
[11]; 8 g ai/ha
  Plant response rating: Waterhemp: 35
[11]; 16 g ai/ha
  Plant response rating: Waterhemp: 50
[11]; 31 g ai/ha
  Plant response rating: Waterhemp: 100
[11]; 62 g ai/ha
  Plant response rating: Waterhemp: 100
[11]; 125 g ai/ha
  Plant response rating: Waterhemp: 100
Kochia (Kochia scoparia); 8 g ai/ha
  Plant response rating: Kochia: 40
Kochia (Kochia scoparia); 16 g ai/ha
  Plant response rating: Kochia: 50
Kochia (Kochia scoparia); 31 g ai/ha
  Plant response rating: Kochia: 70
Kochia (Kochia scoparia); 62 g ai/ha
  Plant response rating: Kochia: 100
Kochia (Kochia scoparia); 125 g ai/ha
  Plant response rating: Kochia: 95
[12]; 8 g ai/ha
  Plant response rating: Ragweed: 0
[12]; 16 g ai/ha
  Plant response rating: Ragweed: 0
[12]; 31 g ai/ha
  Plant response rating: Ragweed: 0
[12]; 62 g ai/ha
  Plant response rating: Ragweed: 20
[12]; 125 g ai/ha
  Plant response rating: Ragweed: 50
[13]; 8 g ai/ha
  Plant response rating: Sandbur: 0
[13]; 16 g ai/ha
  Plant response rating: Sandbur: 0
[13]; 31 g ai/ha
  Plant response rating: Sandbur: 20
[13]; 62 g ai/ha
  Plant response rating: Sandbur: 30
[13]; 125 g ai/ha
  Plant response rating: Sandbur: 60
[14]; 8 g ai/ha
  Plant response rating: Foxtail, Giant: 0
[14]; 16 g ai/ha
  Plant response rating: Foxtail, Giant: 0
[14]; 31 g ai/ha
  Plant response rating: Foxtail, Giant: 0
[14]; 62 g ai/ha
  Plant response rating: Foxtail, Giant: 5
[14]; 125 g ai/ha
  Plant response rating: Foxtail, Giant: 20
